# Where two headings read alike, the source gives them in different places.
# Experiment: Ocular tissue concentrations (aqueous humor, vitreous humor, iris, retina, choroid, cornea) after topical ocular, subcutaneous and intravitreal administration
# Assay type: in vivo, New Zealand White rabbits
# Settings: New Zealand White, rabbit; for concentration at 6 h / concentration at 24 h / concentration at 48 h / concentration at 72 h: other: intravitreal, 2.5 mg/eye
# Protocol: To measure the concentration of Compound 1 in plasma and ocular tissues following topical ocular, subcutaneous, and intravitreal administration, New Zealand White rabbits were administered Compound 1, and plasma and ocular samples were collected at pre-determined time points. Compound 1 formulations were prepared fresh on each day of dosing.
# Ocular tissue samples from both eyes of each animal were collected and weights were recorded. Plasma and ocular tissue sample concentrations of Compound 1 were determined by LC-MS/MS.
# New Zealand White rabbits weighing 2.5 to 3.5 kg were used on this study. Rabbits were housed one per cage. Animals were not fasted and only healthy animals with no ocular illness were used. Two rabbits per group were sacrificed at each of four ocular tissue sampling time points for a total of eight rabbits per group.
# Animals were anesthetized for ocular (topical) and intravitreal dosing following the 12IA7 IACUC protocol. Each rabbit received a bolus dose of test formulation either via topical ocular administration 3 times daily on Days 1 and 2 (at 0, 6, and 12 hours), and once on Day 3 (at 0 hours) into both eyes; via intravitreal administration into both eyes once on Day 1 (at 0 hours); or via subcutaneous administration 2 times daily on Days 1 and 2 (at 0 and 8 hours) and once daily on Day 3 (at 0 hours). Doses were given within an approximately 1 hour window each day where applicable.
# On Day 1, for intravitreal administration, or on Day 3, for topical ocular and subcutaneous administration, at the appropriate ocular tissue collection time points, animals were euthanized and both eyes were enucleated immediately. Following enucleation, each eye was rinsed with phosphate-buffered saline. Ocular tissue samples from both eyes of each animal were collected at predetermined time points and weights were recorded. All the samples were frozen immediately on dry ice, and stored at −60° C. to −80° C. pending bioanalysis.
# An LC-MS/MS method was developed for the determination of Compound 1 in rabbit aqueous tissues (plasma, aqueous and vitreous humor) and solid ocular tissue samples. A pre-study standard curve was analyzed to determine the specificity, range, and lower limit of quantitation of the method. Plasma and tissue homogenate study samples were extracted and analyzed. All the samples were treated identically to the standards.
# One eight-point standard curve was used in each analytical batch. To be accepted, each batch must have had at least five of eight standards with accuracy within ±20% of nominal, except at the lower limit of quantification (LLOQ), where ±25% was acceptable.
# Concentration versus time data is plotted in FIGS. 3-16. All data are expressed as ng/g of the free drug. Samples that were below the limit of quantitation (0.2 ng/mL) were not used in the calculation of averages.
# [1] = iris homogenate, Iris homogenate, OD, sodium salt, intravitreal 2.5 mg/eye, Group 4, read-out: Iris Conc. (ng/mL) OD
# [2] = iris homogenate, Iris homogenate, OS, sodium salt, intravitreal 2.5 mg/eye, Group 4, read-out: Iris Conc. (ng/mL) OS
# [3] = iris homogenate, Iris homogenate, left eye, intravitreal 2.5 mg/eye (group 5), individual animals, read-out: Conc. (ng/mL) OS
# [4] = iris homogenate, Iris homogenate, right eye, intravitreal 2.5 mg/eye (group 5), individual animals, read-out: Conc. (ng/mL) OD
# [5] = iris homogenate, subcutaneous, 5 mg/kg/dose, Iris homogenate, OD, sodium salt, subcutaneous 5 mg/kg/dose, Group 2, read-out: Iris Conc. (ng/mL) OD
# [6] = iris homogenate, subcutaneous, 5 mg/kg/dose, Iris homogenate, OS, free acid, subcutaneous 5 mg/kg/dose, Group 3, read-out: Iris Conc. (ng/mL) OS
# [7] = iris homogenate, subcutaneous, 5 mg/kg/dose, Iris homogenate, OS, sodium salt, subcutaneous 5 mg/kg/dose, Group 2, read-out: Iris Conc. (ng/mL) OS
# [8] = iris homogenate, subcutaneous, 5 mg/kg/dose, TABLE 16: Iris homogenate, OS, free acid, subcutaneous 5 mg/kg/dose, Group 3, read-out: Iris Conc. (ng/mL) OS
# [9] = iris, Iris, OD, sodium salt, intravitreal 2.5 mg/eye, Group 4, read-out: Iris Conc. (ng/g) OD
# [10] = iris, Iris, OS, sodium salt, intravitreal 2.5 mg/eye, Group 4, read-out: Iris Conc. (ng/g) OS
# [11] = iris, Iris, average, intravitreal 2.5 mg/eye (group 5), read-out: Avg.
# [12] = iris, Iris, left eye, intravitreal 2.5 mg/eye (group 5), individual animals, read-out: Conc. (ng/g) OS
# [13] = iris, Iris, right eye, intravitreal 2.5 mg/eye (group 5), individual animals, read-out: Conc. (ng/g) OD
# [14] = iris, Iris, sodium salt, intravitreal 2.5 mg/eye, Group 4, read-out: Iris Avg.
# [15] = iris, subcutaneous, 5 mg/kg/dose, Iris, OD, sodium salt, subcutaneous 5 mg/kg/dose, Group 2, read-out: Iris Conc. (ng/g) OD
# [16] = iris, subcutaneous, 5 mg/kg/dose, Iris, OS, free acid, subcutaneous 5 mg/kg/dose, Group 3, read-out: Iris Conc. (ng/g) OS
# [17] = iris, subcutaneous, 5 mg/kg/dose, Iris, free acid, subcutaneous 5 mg/kg/dose, Group 3, read-out: Iris Average
# [18] = iris, subcutaneous, 5 mg/kg/dose, Iris, sodium salt, subcutaneous 5 mg/kg/dose, Group 2, read-out: Iris Average
# [19] = iris, subcutaneous, 5 mg/kg/dose, Iris, OS, sodium salt, subcutaneous 5 mg/kg/dose, Group 2, read-out: Iris Conc. (ng/g) OS
# [20] = iris, subcutaneous, 5 mg/kg/dose, TABLE 16: Iris, OS, free acid, subcutaneous 5 mg/kg/dose, Group 3, read-out: Iris Conc. (ng/g) OS
# [21] = iris, subcutaneous, 5 mg/kg/dose, TABLE 16: Iris, free acid, subcutaneous 5 mg/kg/dose, Group 3, read-out: Iris Average
smiles,measurement,setting,value
COC(=O)N[C@@H](Cc1ccccc1)C(=O)N[C@@H](Cc1ccc(NS(=O)(=O)O)cc1)c1csc(-c2cccs2)n1 [Compound 1],concentration at 4 h,"cornea, subcutaneous, 5 mg/kg/dose, TABLE 16: Cornea, OD, free acid, subcutaneous 5 mg/kg/dose, Group 3, read-out: Cornea Conc. (ng/g) OD",10.4 ng/g
same,concentration at 4 h,"cornea, subcutaneous, 5 mg/kg/dose, TABLE 16: Cornea, free acid, subcutaneous 5 mg/kg/dose, Group 3, read-out: Cornea Average",15.8 ng/g
same,concentration at 6 h,[1],35500 ng/mL
same,concentration at 6 h,[2],34000 ng/mL
same,concentration at 6 h,[3],13800 ng/mL
same,concentration at 6 h,[4],18500 ng/mL
same,concentration at 24 h,[1],6890 ng/mL
same,concentration at 24 h,[3],14100 ng/mL
same,concentration at 24 h,[4],7670 ng/mL
same,concentration at 48 h,[1],2380 ng/mL
same,concentration at 48 h,[2],1960 ng/mL
same,concentration at 48 h,[3],1950 ng/mL
same,concentration at 48 h,[4],1010 ng/mL
same,concentration at 72 h,[1],169 ng/mL
same,concentration at 72 h,[3],1800 ng/mL
same,concentration at 72 h,[4],279 ng/mL
same,concentration at 0.5 h,[5],27.7 ng/mL
same,concentration at 0.5 h,[6],4.27 ng/mL
same,concentration at 1 h,[5],11.4 ng/mL
same,concentration at 1 h,[6],4.33 ng/mL
same,concentration at 1 h,[7],8.87 ng/mL
same,concentration at 2 h,"iris homogenate, subcutaneous, 5 mg/kg/dose, Iris homogenate, 2 hr, OD, free acid, subcutaneous 5 mg/kg/dose, Group 3, read-out: Iris Conc. (ng/mL) OD",2.77 ng/mL
same,concentration at 2 h,"iris homogenate, subcutaneous, 5 mg/kg/dose, Iris homogenate, 2 hr, OS, free acid, subcutaneous 5 mg/kg/dose, Group 3, read-out: Iris Conc. (ng/mL) OS",2.68 ng/mL
same,concentration at 4 h,"iris homogenate, subcutaneous, 5 mg/kg/dose, Iris homogenate, OD, free acid, subcutaneous 5 mg/kg/dose, Group 3, read-out: Iris Conc. (ng/mL) OD",2.41 ng/mL
same,concentration at 4 hr,[5],2.12 ng/mL
same,concentration at 4 h,[6],1.54 ng/mL
same,concentration at 4 hr,[7],3.1 ng/mL
same,concentration at 0.5 h,[8],4.27 ng/mL
same,concentration at 1 h,[8],4.33 ng/mL
same,concentration at 2 h,"iris homogenate, subcutaneous, 5 mg/kg/dose, TABLE 16: Iris homogenate, 2 hr, OD, free acid, subcutaneous 5 mg/kg/dose, Group 3, read-out: Iris Conc. (ng/mL) OD",2.77 ng/mL
same,concentration at 2 h,"iris homogenate, subcutaneous, 5 mg/kg/dose, TABLE 16: Iris homogenate, 2 hr, OS, free acid, subcutaneous 5 mg/kg/dose, Group 3, read-out: Iris Conc. (ng/mL) OS",2.68 ng/mL
same,concentration at 4 h,"iris homogenate, subcutaneous, 5 mg/kg/dose, TABLE 16: Iris homogenate, OD, free acid, subcutaneous 5 mg/kg/dose, Group 3, read-out: Iris Conc. (ng/mL) OD",2.41 ng/mL
same,concentration at 4 h,[8],1.54 ng/mL
same,concentration at 6 h,[9],390000 ng/g
same,concentration at 6 h,[10],374000 ng/g
same,concentration at 6 h,[11],211000 ng/g
same,concentration at 6 h,[12],152000 ng/g
same,concentration at 6 h,[13],204000 ng/g
same,concentration at 6 h,[14],352000 ng/g
same,concentration at 24 h,[9],75800 ng/g
same,concentration at 24 h,[11],113000 ng/g
same,concentration at 24 h,[12],155000 ng/g
same,concentration at 24 h,[13],84400 ng/g
same,concentration at 24 h,[14],141000 ng/g
same,concentration at 48 h,[9],26200 ng/g
same,concentration at 48 h,[10],21600 ng/g
same,concentration at 48 h,[11],16800 ng/g
same,concentration at 48 h,[12],21400 ng/g
same,concentration at 48 h,[13],11100 ng/g
same,concentration at 48 h,[14],24600 ng/g
same,concentration at 72 h,[9],1860 ng/g
same,concentration at 72 h,[11],10300 ng/g
same,concentration at 72 h,[12],19800 ng/g
same,concentration at 72 h,[13],3070 ng/g
same,concentration at 72 h,[14],1550 ng/g
same,concentration at 0.5 h,[15],305 ng/g
same,concentration at 0.5 h,[16],47 ng/g
same,concentration at 0.5 h,[17],50.3 ng/g
same,concentration at 0.5 h,[18],459 ng/g
same,concentration at 1 h,[15],125 ng/g
same,concentration at 1 h,[16],47.6 ng/g
same,concentration at 1 h,[19],97.6 ng/g
same,concentration at 1 h,[17],58 ng/g
same,concentration at 1 h,[18],94.7 ng/g
same,concentration at 2 h,"iris, subcutaneous, 5 mg/kg/dose, Iris, 2 hr, OD, free acid, subcutaneous 5 mg/kg/dose, Group 3, read-out: Iris Conc. (ng/g) OD",30.5 ng/g
same,concentration at 2 h,"iris, subcutaneous, 5 mg/kg/dose, Iris, 2 hr, OS, free acid, subcutaneous 5 mg/kg/dose, Group 3, read-out: Iris Conc. (ng/g) OS",29.5 ng/g
same,concentration at 2 h,"iris, subcutaneous, 5 mg/kg/dose, Iris, 2 hr, free acid, subcutaneous 5 mg/kg/dose, Group 3, read-out: Iris Average",27.6 ng/g
same,concentration at 2 hr,"iris, subcutaneous, 5 mg/kg/dose, Iris, 2 hr, sodium salt, subcutaneous 5 mg/kg/dose, Group 2, read-out: Iris Average",29.7 ng/g
same,concentration at 4 h,"iris, subcutaneous, 5 mg/kg/dose, Iris, OD, free acid, subcutaneous 5 mg/kg/dose, Group 3, read-out: Iris Conc. (ng/g) OD",26.5 ng/g
same,concentration at 4 hr,[15],33.8 ng/g
same,concentration at 4 h,[16],16.9 ng/g
same,concentration at 4 hr,[19],34.1 ng/g
same,concentration at 4 h,[17],17.5 ng/g
same,concentration at 4 hr,[18],30.4 ng/g
same,concentration at 0.5 h,[20],47 ng/g
same,concentration at 0.5 h,[21],50.3 ng/g
same,concentration at 1 h,[20],47.6 ng/g
same,concentration at 1 h,[21],58 ng/g

# — patent US11666558B2, “Methods of treating intraocular pressure with activators of Tie-2” (EyePoint Pharmaceuticals, Inc., priority 2015, dated 2023)
